Earlier results, collected in patent publication US20140316796A1, “SYSTEMS, METHODS, AND COMPUTER-READABLE MEDIA FOR LIMITED DISTRIBUTION OF SPECIALTY DRUG USING A COMPUTER HUB OPERATING AT A SINGLE ACCESS POINT” (Jazz Pharmaceuticals, priority 2013, published 2014).

Tests used:
[1] = pH 4
[2] = in vivo

SMILES: CSCC[C@@H]1NC(=O)[C@H](CC(C)C)NC(=O)[C@H](CCCNC(=N)N)NC(=O)[C@H](CO)NC(=O)[C@@H]2CSSC[C@@H]3NC(=O)[C@H](CO)NC(=O)CNC(=O)[C@H]([C@@H](C)O)NC(=O)[C@H](CSSC[C@H](N)C(=O)N[C@@H](CCCCN)C(=O)NCC(=O)N[C@@H](CCCCN)C(=O)NCC(=O)N[C@@H](C)C(=O)N[C@@H](CCCCN)C(=O)N2)NC(=O)[C@H](CSSC[C@@H](C(N)=O)NC(=O)[C@H](CCCCN)NC(=O)CNC(=O)[C@H](CO)NC(=O)[C@H](CCCNC(=N)N)NC3=O)NC(=O)[C@H](CC(=O)O)NC(=O)[C@H](Cc2ccc(O)cc2)NC1=O [ziconotide]
- stabilisation by methionine-containing buffer [1]: effective in stabilizing ziconotide
- addiction potential [2]: does not have addiction potential
- development of tolerance [2]: tolerance does not appear to develop
- effect on respiratory function [2]: does not suppress respiratory function
